Laboratory results from US9738599B2, “Thromboxane receptor antagonists” (UNIVERSITY COLLEGE DUBLIN, NATIONAL UNIVERSITY OF IRELAND, …, priority 2012, dated 2017).

Tests used:
[1] = biological target: T1, TPβ (Homo sapiens, UniProt P21731); test: U46619-induced [Ca2+]i mobilization in HEK.TPβ cells; format: cell-based; details: for Reduction of U46619-mediated calcium mobilization in HEK.TPβ cells: at 1 & 10 μM concentrations; for Calcium mobilization, Percentage of Control, TPβ / remaining activity at 1 µM: 1 μM U46619, HEK.TPβ, mean ± S.E.M.; for remaining activity at 1 µM: read-out: Calcium mobilization, Percentage of Control, TPβ; for inhibition at 0.5 µM: antagonist 0.5 μM, read-out: Inhibition of U46619-mediated responses in HEK.TPβ cells
T1 construct: expressed in transfected cells
Text: (§1) The appropriate functional test for the evaluation of the agonistic and/or antagonistic potency of the compounds of the invention is the determination of calcium flux. Both TPα and […] are coupled to the G-protein Gαq. Therefore, stimulation of these receptors ultimately leads to a release of intracellular calcium ([Ca^2+]i) from intracellular stores. Consequently, the determination of [Ca^2+]i flux represents an appropriate functional test for the evaluation of the agonistic/antagonistic potency of compounds of the invention. Calcium can be measured using a molecule characterized by the covalent combination of a Ca^2+ chelating group and a fluorophore group. The Ca^2+ binding properties of these indicators are formed by the presence of a tetracarboxylic acid core as found for example in EGTA (ethylene glycol bis(2-aminoethyl) tetraacetic acid). Binding of Ca^2+ produces a wavelength shift in either the excitation or emission fluorescence spectra or a change in the emission intensity. Whereas the Ca^2+ binding to EGTA is pH dependent, recent dyes are designed from an EGTA derivative, BAPTA (1, 2-Bis(2-Aminophenoxy)ethane-N, N, N′, N′-Tetraacetic Acid). Loading of these dyes inside cells commonly uses esterified forms (acetoxymethyl ester), which are able to cross the cell membranes and are subsequently hydrolyzed by esterases inside the cell.
(§2) Estimation of [Ca^2+]i flux is calculated from the fluorescence signal (F). For calibration, the maximal fluorescence (Fmax, Ca^2+-saturated form of the dye) as well as minimal fluorescence (Fmin, Ca^2+-free form of the dye) must be determined. These parameters are determined usually in situ after the experiment, for example by subsequent addition to the mixture of a cell-disrupting agent that releases all Ca^2+ such as Triton X100 and a potent Ca^2+-chelating agent such as EGTA. After subtraction of background fluorescence, [Ca^2+]i flux can be calculated for non-ratiometric indicators.
(§3) Intracellular [Ca^2+]i fluxes were measured using a fluorescence plate reader following a modified protocol of Kassack et al., Quantitative comparison of functional screening by measuring intracellular Ca^2+ with radioligand binding at recombinant human dopamine receptors. AAPS Pharmsci, 2002, 4(4); 102-111, in cell lines (e.g. HEK293 or other cell type) endogenously-expressing or over-expressing either TPα, TPβ or any other receptor or protein to be screened.
(§4) By way of example, HEK 293 cells which have been grown for 3-4 days in normal growth media (minimum essential media containing 10% FBS and 2 mmol/l L-glutamine), under normal growth conditions (37° C., in humidified 5% CO2 atmosphere) are washed and harvested in KREBs-HEPES buffer (118 mM NaCl, 4.7 mM KCl, 1.2 mM MgSO4, 1.2 mM KH2PO4, 4.2 mM NaHCO3, 11.7 mM D-glucose, 1.3 mM CaCl2, 10 mM HEPES, pH 7.4). Cells are then incubated with 3 µM Fluo-4 in KREBs-HEPES buffer containing 1% Pluoronic F-127, for 1 hr at 25° C. with agitation. Thereafter, cells are washed in KREBs-HEPES buffer containing 0.5% bovine serum albumin and resuspended at a final concentration of 3×10^5 cells/ml. Approximately, 5.4×10^4 cells per well are plated in a 96-well plate and pre-incubated with test compounds for 10 min prior to measuring the fluorescence intensity at 520 nm for 25 seconds at 1 second intervals to monitor baseline using the Fluoroskan Ascent. Agonist (e.g., 1 μM U46619) is injected into separate wells by the automatic pipettor and fluorescence intensity is monitored at 520 nm for 75 seconds at 1 second intervals. Thereafter, Triton X100 and EGTA are added sequentially where Fmax refers to maximal fluorescence intensity measured after permeabilization of the cells with 2% Triton X100 and Fmin refers to fluorescence intensity measured after addition of 1 mM EGTA.
(§5) The dye Fluo-4 has its excitation peak at 480 nm, in the visible spectra, which spare cells to be damaged by UV (340-360 nm) stimulation and reduces auto-fluorescence of cells. […]

[2] = biological target: T2, TPα (Homo sapiens, UniProt P21731); test: U46619-induced [Ca2+]i mobilization in HEK.TPα cells; format: cell-based; details: 1 μM U46619, mean ± S.E.M.
T2 construct: expressed in transfected cells
T2 sequence (P21731 1-343): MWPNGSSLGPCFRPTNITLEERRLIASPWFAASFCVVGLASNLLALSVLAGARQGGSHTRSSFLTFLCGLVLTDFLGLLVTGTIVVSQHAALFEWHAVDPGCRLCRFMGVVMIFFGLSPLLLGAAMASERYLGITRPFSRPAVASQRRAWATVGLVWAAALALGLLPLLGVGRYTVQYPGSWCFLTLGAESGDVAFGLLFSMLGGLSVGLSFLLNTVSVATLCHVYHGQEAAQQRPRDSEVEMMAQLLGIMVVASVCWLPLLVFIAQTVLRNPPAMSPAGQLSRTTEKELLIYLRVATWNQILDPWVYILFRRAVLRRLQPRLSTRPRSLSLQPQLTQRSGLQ
Text: as §1, §2, §3, §4, §5

[3] = system: platelets in whole blood; test: U46619-mediated platelet aggregation in whole blood (Sysmex haematological analyzer); format: cell-based, human; details: antagonist 0.1 μM, 1 μM U46619 for 3 min
Procedure: From an efficacy point of view, this is an important assay and, physiologically, relevant with respect to the therapeutic target.
Initially, the Sysmex haematological analyzer was used to examine the effect of the TP antagonists at a single concentration (0.1 μM) on U46619 (1 μM)-mediated platelet aggregation in whole blood.
FIG. 3 illustrates effects of the TP antagonist compounds on U46619-mediated platelet aggregation. Blood was taken form healthy volunteer by venupuncture into syringes containing 3.8% sodium citrate, 10 μM Indomethacin, such that the ratio of anticoagulant: blood was 1:9. The blood was aliquoted and incubated for 10 min with TP20 and selected NTP compounds, as indicated, where the antagonist were used at 0.1 μM prior to stimulation with 1 μM U46619 for 3 min. The blood was fixed with formaldehyde and platelet numbers counted using the Sysmex haematological analyzer. Data is presented as the mean percentage of control or non-treated blood sample (Percentage of Control; %) and represent data from 3 independent experiments were samples were treated in duplicate.

T1 sequence (P21731 1-407 isoform P21731-2): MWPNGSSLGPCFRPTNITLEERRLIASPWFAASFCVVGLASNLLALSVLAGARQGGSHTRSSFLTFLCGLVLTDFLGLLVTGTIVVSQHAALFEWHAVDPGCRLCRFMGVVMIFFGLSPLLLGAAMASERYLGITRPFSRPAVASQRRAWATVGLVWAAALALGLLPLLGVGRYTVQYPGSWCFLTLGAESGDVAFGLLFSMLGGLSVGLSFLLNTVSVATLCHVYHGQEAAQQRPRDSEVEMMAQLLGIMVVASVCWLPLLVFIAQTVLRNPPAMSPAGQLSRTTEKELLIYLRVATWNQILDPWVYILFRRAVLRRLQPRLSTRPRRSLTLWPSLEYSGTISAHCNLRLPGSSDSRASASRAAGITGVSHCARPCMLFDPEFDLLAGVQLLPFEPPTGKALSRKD

Compound	Calcium mobilization, Percentage of Control, TPα ([2]; antagonist 1 μM)	Calcium mobilization, Percentage of Control, TPα ([2]; antagonist 10 μM)	Calcium mobilization, Percentage of Control, TPβ ([1]; antagonist 1 μM)	Calcium mobilization, Percentage of Control, TPβ ([1]; antagonist 10 μM)	also measured
Cc1ccc(Nc2ccc([N+](=O)[O-])cc2S(=O)(=O)NC(=O)NC(C)(C)C)cc1 [BM573, reference compound]	–	–	–	–	Reduction of U46619-mediated calcium mobilization in HEK.TPβ cells [1]: potently inhibited
COc1ccc(-c2cccc(Oc3ccc(C(F)(F)F)cc3S(=O)(=O)NC(=O)NC(C)(C)C)c2)cc1 [NTP3, N-(tert-butylcarbamoyl)-2-((4′-methoxy-[1,1-biphenyl]-3-yl)oxy)-5-(trifluoromethyl) benzenesulfonamide]	69.6 ± 5.92%	41.6 ± 5.45%	46.0 ± 5.92%	14.8 ± 2.44%	–
COc1ccc(-c2cccc(Oc3ccc(F)cc3S(=O)(=O)NC(=O)NC(C)(C)C)c2)cc1 [NTP8, N-(tert-butylcarbamoyl)-5-fluoro-2-((4′-methoxy-[1,1′-biphenyl]-3-yl)oxy)benzene-sulfonamide]	–	–	–	–	remaining activity at 1 µM ([1]; antagonist 1 μM): 5.94 ± 1.85%
COc1ccc(-c2cccc(Oc3ccc(C(=O)N4CC(O)C4)cc3S(=O)(=O)NC(=O)NC(C)(C)C)c2)cc1 [NTP23, N-(tert-butylcarbamoyl)-5-(3-hydroxyazetidine-1-carbonyl)-2-((4′-methoxy-[1,1′-biphenyl]-3-yl)oxy)benzenesulfonamide]	–	–	–	–	remaining activity at 1 µM ([1]; antagonist 1 μM): 4.84 ± 2.75%
COc1ccc(-c2cccc(Oc3ccc(S(C)(=O)=O)cc3S(=O)(=O)NC(=O)NC(C)(C)C)c2)cc1 [NTP27, N-(tert-butylcarbamoyl)-2-((4′-methoxy-[1,1′-biphenyl]-3-yl)oxy)-5-(methylsulfonyl) benzenesulfonamide]	81.1 ± 10.2%	68.4 ± 4.56%	36.4 ± 3.80%	16.3 ± 2.39%	–
COc1ccc(-c2cccc(Oc3ccc(Cl)cc3S(=O)(=O)NC(=O)NC(C)(C)C)c2)cc1 [NTP30, N-(tert-butylcarbamoyl)-5-chloro-2-((4′-methoxy-[1,1′-biphenyl]-3-yl)oxy) benzenesulfonamide]	52.2 ± 3.90%	23.3 ± 3.63%	46.5 ± 5.86%	9.31 ± 1.57%	–
COc1ccc(-c2cccc(Oc3cc(C)c(C#N)cc3S(=O)(=O)NC(=O)NC(C)(C)C)c2)cc1 [NTP32, N-(tert-butylcarbamoyl)-5-cyano-2-((4′-methoxy-[1,1′-biphenyl]-3-yl)oxy)-4-methyl benzenesulfonamide]	80.3 ± 4.21%	69.3 ± 2.07%	93.6 ± 4.06%	46.2 ± 4.83%	–
COc1ccc(-c2cccc(Oc3ccc([N+](=O)[O-])cc3S(=O)(=O)NC(=O)NC(C)(C)C)c2)cc1 [TP20, N-(tert-butylcarbamoyl)-2-((4′-methoxy-[1,1′-biphenyl]-3-yl)oxy)-5-nitrobenzene-sulfonamide]	–	–	–	–	inhibition at 0.5 µM [1]: > 50%; Reduction of U46619-mediated calcium mobilization in HEK.TPβ cells [1]: approx. 90%; Inhibition of the U46619-mediated reduction in platelet number [3]: almost completely inhibited
CC(C)(C)NC(=O)NS(=O)(=O)c1cc([N+](=O)[O-])ccc1Oc1cccc(-c2ccc(C(F)(F)F)cc2)c1 [XII]	–	–	–	–	inhibition at 0.5 µM [1]: > 50%
